Measurements: PMC4336331, “Novel Receptor-Derived Cyclopeptides to Treat Heart Failure Caused by Anti-β1-Adrenoceptor Antibodies in a Human-Analogous Rat Model” (PLoS ONE, 2015)
Read-outs that look alike come from different tables or passages of the source.

Experiments:
[1] = system: anti-β1EC2-induced heart failure (β1EC2/GST-FP-immunised rats); assay: Left heart catheterisation (haemodynamics), prevention-study; type: in vivo, Lewis/CrlBR rats; conditions: LV catheterisation month 16, mean ±SEM
Method: (§1) In brief, n = 76 two months old Lewis/CrlBR rats were either s.c. immunised with 50 μg β1EC2/GST-FP, or n = 38 rats were control-injected with 0.9% NaCl (t = 0). To maintain high anti-β1EC2-titers, all immunised rats were boosted with β1EC2/GST-FP (or 0.9% NaCl) every month over 20 months as previously described. Application of the different linear or cyclic β1-AR peptides (corresponding to the primary AA-sequence of either the first (β1EC1) or the 2nd extra-cellular β1-AR loop (β1EC2)) or the β1-receptor blocker bisoprolol was initiated either 6 weeks after the 1st immunisation (i.e. 15 days after the 1st boost, prevention-study), or 8.5 months after the 1st immunisation (therapy-study).

[2] = system: anti-β1EC2-induced heart failure (β1EC2/GST-FP-immunised rats); assay: Relative organ wet weights and body weight, therapy-study; conditions: immunised anti-β1EC2-positive rats, from 8.5 months after 1st immunisation peptides 1.0 mg/kg i.v. every 4 weeks, bisoprolol 15 mg/kg/day orally, over 12 months, month 20, mean ±SEM
Method: as §1
After the hearts all other relevant inner organs (e.g., lung, liver, spleen, kidneys, brain, and eyes) were removed, rinsed with ice-cold PBS, weighed, sectioned, and fixed for further histologic analysis.

[3] = system: anti-β1EC2-induced heart failure (β1EC2/GST-FP-immunised rats); assay: Left heart catheterisation (haemodynamics), therapy-study; type: in vivo, Lewis/CrlBR rats; conditions: LV catheterisation month 20, mean ±SEM
Method: as §1

[4] = system: anti-β1EC2-induced heart failure (β1EC2/GST-FP-immunised rats); conditions: therapy-study, end of study, mean ±SEM
Method: as §1
From paraffin-embedded heart preparations cavity- and wall-dimensions were determined by computer-aided analysis of H&E-stained mid-ventricular 2μm-sections as previously described. H&E-stained paraffin-sections also served to quantify damaged and fibrotic cardiac areas (scars). For detection of mast cells, deparaffinised cardiac sections were stained with acidified (pH<2.5) toluidine blue 0.1% (Sigma). The number of toluidine-positive cells was normalized to square millimeter of cardiac tissue. TUNEL-positive cells were quantified in 2μm mid-ventricular paraffin-sections using a TMR Red in Situ Death Detection Kit (Roche, Basel, Switzerland). Only the total number of TUNEL-postive cells/section was determined without further differentiation of the specific apoptotic cell type (e.g., fibroblasts, endothelial cells, cardiomyocytes).

anti-β1EC2-antibodies = assay: Free anti-β1EC2-titers by ELISA, therapy-study; type: in vivo, Lewis/CrlBR rats; conditions: peptides 1.0 mg/kg/month i.v., bisoprolol 15 mg/kg/day orally (S1 Fig., Fig. 2F)
Method: as §1
(TIF) Click here for additional data file.

[5] = system: anti-β1EC2-induced heart failure (β1EC2/GST-FP-immunised rats); assay: Heart histology (fibrotic scars, TUNEL, mast cells), therapy-study; type: in vivo, Lewis/CrlBR rats
Description: Fig 3 Histology of rat hearts (therapy-study). (A) Representative H&E-stained 2μm cross-sections of hearts (from the left to the right) from a control rat, an immunised untreated rat, a bisoprolol- and a β1EC2-CP mono-treated rat, and a β1EC2-CP/bisoprolol co-treated rat. (B) Quantification of fibrotic scars in midventricular 2μm-sections (mvhs, mid-ventricular heart-section). Columns ± error bars represent the mean number of fibrotic scars ±SEM per 3 heart sections in the indicated groups. (C) TUNEL-assay with 2μm-mvhs. Columns ± error bars represent mean numbers ±SEM of apoptotic cells (kind of cells not specified) /3 mvhs. (D) qRT-PCR of apical cardiac tissues. Columns ± error bars represent the expression of the indicated pro-fibrotic markers ±SEM in the indicated treatment-groups normalised to controls. (E) Mast cells in 2μm paraffin-mvhs from the indicated treatment-groups; columns ± error bars represent the mean numbers ±SEM of mast cells/mm^2 cardiac tissue. For all parameters shown, differences between the treatment-groups were assessed by […] one way ANOVA and Dunnett`s post-hoc test; *p<0.05; **p<0.001.

[6] = system: anti-β1EC2-induced heart failure (β1EC2/GST-FP-immunised rats); assay: Echocardiography and catheterisation, cardiomyopathic phenotype, therapy-study; type: in vivo, Lewis/CrlBR rats; conditions: echocardiography and catheterisation (Fig. 2G, H; S2 Fig.)
Method: as §1
In brief, the rats were lightly anaestetised (30 mg/kg ketamine-HCl and 5 mg/kg xylazine i.p.), shaved (chest), and placed supine on a special table. M-mode tracings were recorded at baseline (before immunisation), and subsequently every four months in the parasternal long and short axis views according to the guidelines of the American Society for Echocardiography. Pulsed-wave Doppler spectra were recorded from the apical five-chamber view and the velocity-time integral (VTI) of the transaortic flow served to calculate cardiac output (CO [ml/min] = Aortic VTI x (π [LV-outflow tract diameter/2]^2) x bpm).

[7] = immunised anti-β1EC2-positive rats, from 6 weeks after 1st immunisation EC2-CP 1.0 mg/kg i.v. every 4 weeks or bisoprolol 15 mg/kg/day orally over 12 months
[8] = non-immunised 0.9% NaCl-injected rats, EC2-CP 1.0 mg/kg i.v. every 4 weeks or bisoprolol 15 mg/kg/day orally over 12 months
[9] = immunised anti-β1EC2-positive rats, from 8.5 months after 1st immunisation peptides 1.0 mg/kg i.v. every 4 weeks, bisoprolol 15 mg/kg/day orally, over 12 months

SMILES: CC(C)NCC(O)COc1ccc(COCCOC(C)C)cc1 (stereo not drawn) [bisoprolol, reference compound]
- +dP/dt (contractilility) [1, 7]: 6768 ±106 mmHg/s
- -dP/dt (relaxation) [1, 7]: 5532 ±78 mmHg/s
- HF (heart frequence) [1, 7]: 178 ±9 bpm
- LVEDP (LV end-diastolic pressure) [1, 7]: 8.3 ±0.6 mmHg
- LVSP (maximal systolic LV-pressure) [1, 7]: 106 ±3 mmHg
- +dP/dt (contractilility) [1, 8]: 7012 ±419 mmHg/s
- -dP/dt (relaxation) [1, 8]: 5619 ±155 mmHg/s
- HF (heart frequence) [1, 8]: 173 ±17 bpm
- LVEDP (LV end-diastolic pressure) [1, 8]: 10.6 ±1.5 mmHg
- LVSP (maximal systolic LV-pressure) [1, 8]: 107 ±11 mmHg
- Heart, relative (wet) weight [2]: 2.93 ± 0.11 mg/g
- Liver, relative (wet) weight [2]: 21.61 ± 1.47 mg/g
- Lung, relative (wet) weight [2]: 2.88 ± 0.10 mg/g
- +dP/dt (contractilility) [3, 9]: 5697 ± 231 mmHg/s
- -dP/dt (relaxation) [3, 9]: 4238 ± 117 mmHg/s
- HF (heart frequence) [3, 9]: 173 ± 3 bpm
- LVEDP (LV end-diastolic pressure) [3, 9]: 10.9 ± 1.3 mmHg
- LVSP (maximal systolic LV-pressure) [3, 9]: 108 ± 2 mmHg
- +dP/dt (contractilility) [3, 8]: 6018 ±308 mmHg/s
- -dP/dt (relaxation) [3, 8]: 4646 ± 295 mmHg/s
- HF (heart frequence) [3, 8]: 168 ± 6 bpm
- LVEDP (LV end-diastolic pressure) [3, 8]: 9.7 ± 0.9 mmHg
- LVSP (maximal systolic LV-pressure) [3, 8]: 104 ± 4 mmHg
- IVS (thickness of the inter-ventricular septum) [4, 9]: 1.7 ±0.1 mm
- LVA (total LV-area) [4, 9]: 61.9 ±5.2 mm2
- LVCA (LV-cavity area) [4, 9]: 26.8 ±1.0 mm2
- LVWA (LV wall area) [4, 9]: 35.0 ±4.5 mm2
- PW (posterior wall thickness) [4, 9]: 1.5 ±0.1 mm
- IVS (thickness of the inter-ventricular septum) [4, 8]: 1.8 ±0.1 mm
- LVA (total LV-area) [4, 8]: 58.4 ±0.7 mm2
- LVCA (LV-cavity area) [4, 8]: 22.6 ±0.2 mm2
- LVCA / LVA % [4, 8]: 38.7 ±0.5%
- LVWA (LV wall area) [4, 8]: 35.8 ±0.5 mm2
- PW (posterior wall thickness) [4, 8]: 1.8 ±0.1 mm
- effect on anti-β1EC2-titers, in words (anti-β1EC2-antibodies): no effect
- number of myocardial fibrotic scars, in words ([5]; midventricular 2μm-sections (Fig. 3A and B)): not seen
- TUNEL-positive apopotic cells, in words ([5]; midventricular 2μm-sections (Fig. 3C)): not seen
- increase in cardiac mast cells, in words ([5]; toluidine blue, mono- or co-treatment (Fig. 3E)): reversed to control levels
- cardiomyopathic phenotype, in words [6]: only stopped further disease-progression
